From patent EP3057951B1, “METHYLENE LINKED QUINOLINYL MODULATORS OF ROR-GAMMA-T” (Janssen Pharmaceutica NV, priority 2013, dated 2015)
Values joined by “and” are separate entries in the source; they are usually repeats but may differ in a detail not shown here. Equal values may be shown once. Where a name gives a salt, the structure may show the parent alone. Read-outs that look alike come from different tables or passages of the source.

Columns and labels:
[1] = target: T1, wild type human RORγt LBD (Homo sapiens, UniProt P51449); assay: RORγt (LBD) Reporter Assay (GAL4-luciferase, HEK293T cells); type: cell-based; details: for inhibition at 6 µM: HEK-293T, read-out: RORγt (LBD) Reporter Assay, % inhibition @ 6 µM, 6 µM compound concentration; for RORγt (LBD) Reporter Assay, % inhibition @ 6 µM: 6 µM compound concentration
T1 construct: expressed in transfected cells; host or cells: HEK293T
T1 sequence (P51449 258-518): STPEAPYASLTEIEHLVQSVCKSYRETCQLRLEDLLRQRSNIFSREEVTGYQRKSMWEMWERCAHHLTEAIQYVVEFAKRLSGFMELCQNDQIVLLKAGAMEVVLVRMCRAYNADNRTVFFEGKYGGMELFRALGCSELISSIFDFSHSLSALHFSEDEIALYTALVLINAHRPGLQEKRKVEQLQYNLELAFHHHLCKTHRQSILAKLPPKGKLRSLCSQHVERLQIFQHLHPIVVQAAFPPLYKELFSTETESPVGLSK

[2] = target: T2, wild type human RORγt ligand binding domain (RORyt LBD) (Homo sapiens, UniProt P51449); assay: RORγt ThermoFluor assay (thermal shift, binding affinity KD)
T2 construct: His-tag (N); TurboTEV protease cleavage site (ENLYFQG) (N); made in house; host or cells: E. coli (pHIS1, modified pET vector)
T2 sequence (P51449 258-518): T1 sequence (P51449 258-518)

[3] = HEK293T cells, value after the comma with ∼, > or < could not be included in the average

Structure (SMILES)	IC50 ([1]; HEK293T cells) [nM]	inhibition at 6 µM ([1]; HEK293T cells) [%]	Kd [2] [nM]	RORγt (LBD) Reporter Assay, % inhibition @ 6 µM [1] [%]	IC50 [1, 3]	RORγt (LBD) Reporter Assay, % inhibition @ 6 µM ([1]; HEK293T cells) [%]	inhibition at 6 µM [1] [%]
Cn1cncc1C(O)(c1ccc(Cl)cc1)c1ccc2nc(N3CCC3)c(Cc3ccc(-n4cccn4)cc3)c(Cl)c2c1 (stereo not drawn) [Example 138a, {2-Azetidin-1-yl-4-chloro-3-[4-(1H-pyrazol-1-yl)benzyl]quinolin-6-yl}(4-chlorophenyl)(1-methyl-1H-imidazol-5-yl)methanol]	130	98	130				
COc1nc2ccc(C(O)(c3ccc(C)nc3C)C3CN(C(C)=O)C3)cc2c(Cl)c1Cc1ccc(C(F)(F)F)cc1 (single isomer, unassigned) [Example 87c, 1-(3-((4-Chloro-2-methoxy-3-(4-(trifluoromethyl)benzyl)quinolin-6-yl)(2,6-dimethylpyridin-3-yl)(hydroxy)methyl)azetidin-1-yl)ethanone]			3	97	15 nM		
COc1nc2ccc(C(O)(c3ccc(F)cc3)c3cccnc3)cc2c(Cl)c1Cc1ccc(-n2cccn2)cc1 (single isomer, unassigned) [Example 158c, (3-(4-(1H-Pyrazol-1-yl)benzyl)-4-chloro-2-methoxyquinolin-6-yl)(4-fluorophenyl)(pyridin-3-yl)methanol]	130		7.7			100	
Cn1cncc1C(O)(c1ccc(Cl)cc1)c1ccc2nc(N3CCC3)c(Cc3ccc(-n4cccn4)cc3)c(Cl)c2c1 (single isomer, unassigned) [Example 138c, {2-Azetidin-1-yl-4-chloro-3-[4-(1H-pyrazol-1-yl)benzyl]quinolin-6-yl}(4-chlorophenyl)(1-methyl-1H-imidazol-5-yl)methanol]	75		32			96	
COc1nc2ccc(C(O)(c3ncccn3)c3cncn3C)cc2c(Cl)c1Cc1ccc(-n2cccn2)cc1 (single isomer, unassigned) [Example 131c, {4-Chloro-2-methoxy-3-[4-(1H-pyrazol-1-yl)benzyl]quinolin-6-yl}(1-methyl-1H-imidazol-5-yl)pyrimidin-2-ylmethanol]	1600		220			100	
COc1nc2ccc(C(O)(c3cnnn3C)C3CNC3)cc2c(Cl)c1Cc1ccc(C(F)(F)F)cc1 (stereo not drawn) [Example 124, Azetidin-3-yl(4-chloro-2-methoxy-3-(4-(trifluoromethyl)benzyl)quinolin-6-yl)(1-methyl-1H-1,2,3-triazol-5-yl)methanol]	670	93	240				
COc1nc2ccc(C(O)(c3cnnn3C)C3CCN(C(C)=O)CC3)cc2c(Cl)c1Cc1ccc(C(F)(F)F)cc1 (racemic) [Example 74a, 1-(4-((4-Chloro-2-methoxy-3-(4-(trifluoromethyl)benzyl)quinolin-6-yl)(hydroxy)(1-methyl-1H-1,2,3-triazol-5-yl)methyl)piperidin-1-yl)ethanone]			3.1		~10 nM		98
Cn1cncc1C(O)(c1ccc(Cl)cc1)c1ccc2nc(N3CCC3)c(Cc3ccc(-n4cccn4)cc3)c(Cl)c2c1 (single isomer, unassigned) [Example 138b, {2-Azetidin-1-yl-4-chloro-3-[4-(1H-pyrazol-1-yl)benzyl]quinolin-6-yl}(4-chlorophenyl)(1-methyl-1H-imidazol-5-yl)methanol]	560	101	1300				
COc1nc2ccc(C(O)(c3ccccc3)C3CCN(C(C)=O)CC3)cc2c(Cl)c1Cc1ccc(-n2cncn2)cc1 (single isomer, unassigned) [Example 18c, 1-(4-((3-(4-(1H-1,2,4-Triazol-1-yl)benzyl)-4-chloro-2-methoxyquinolin-6-yl)(hydroxy)(phenyl)methyl)piperidin-1-yl)ethanone]			50	91	88 nM		
COc1nc2ccc(C(O)(c3ccc(C)nc3C)c3cnnn3C)cc2c(Cl)c1Cc1ccc(-n2cncn2)cc1 (single isomer, unassigned) [Example 22c, (3-(4-(1H-1,2,4-Triazol-1-yl)benzyl)-4-chloro-2-methoxyquinolin-6-yl)(2,6-dimethylpyridin-3-yl)(1-methyl-1H-1,2,3-triazol-5-yl)methanol]			2	98	11 nM		
Cn1cncc1C(O)(c1ccc(C(F)(F)F)nc1)c1ccc2nc(C(F)(F)F)c(Cc3ccccc3)c(Cl)c2c1 (stereo not drawn) [Example 105, (3-Benzyl-4-chloro-2-(trifluoromethyl)quinolin-6-yl)(1-methyl-1H-imidazol-5-yl)(6-(trifluoromethyl)pyridin-3-yl)methanol•TFA]			5.6		> 6000 nM		38
Cn1cncc1C(O)(c1ccc(C(F)(F)F)nc1)c1ccc2nc(C(F)(F)F)c(Cc3ccccc3)c(C#N)c2c1 (single isomer, unassigned) [Example 108c, 3-Benzyl-6-(hydroxy(1-methyl-1H-imidazol-5-yl)(6-(trifluoromethyl)pyridin-3-yl)methyl)-2-(trifluoromethyl)quinoline-4-carbonitrile]			46	83	960 nM and ~1000 nM		
COc1nc2ccc(C(O)(c3ccc(C)nc3C)c3cnc(C)n3C)cc2c(Cl)c1Cc1ccc(C(F)(F)F)cc1 (racemic) [Example 57a, (4-Chloro-2-methoxy-3-(4-(trifluoromethyl)benzyl)quinolin-6-yl)(1,2-dimethyl-1H-imidazol-5-yl)(2,6-dimethylpyridin-3-yl)methanol]			0.03		22 nM		100
COc1nc2ccc(C(O)(c3ccc(C)nc3C)c3cnnn3C)cc2c(Cl)c1Cc1ccc(C)cc1 (single isomer, unassigned) [Example 20b, (4-Chloro-2-methoxy-3-(4-methylbenzyl)quinolin-6-yl)(2,6-dimethylpyridin-3-yl)(1-methyl-1H-1,2,3-triazol-5-yl)methanol]			390		1400 nM		84
CCc1nc2ccc(C(O)(c3ccc(C)nc3C)c3cnnn3C)cc2c(Cl)c1Cc1ccc(C(F)(F)F)cc1 (stereo not drawn) [Example 23a, (4-Chloro-2-ethyl-3-(4-(trifluoromethyl)benzyl)quinolin-6-yl)(2,6-dimethylpyridin-3-yl)(1-methyl-1H-1,2,3-triazol-5-yl)methanol]			0.14		18 nM		99
CC(=O)N1CCC(C(O)(c2cc(C)c3nc(C#N)c(Cc4ccc(-n5cccn5)cc4)c(C#N)c3c2)c2cncn2C)CC1 (single isomer, unassigned) [Example 81b, 3-(4-(1H-Pyrazol-1-yl)benzyl)-6-((1-acetylpiperidin-4-yl)(hydroxy)(1-methyl-1H-imidazol-5-yl)methyl)-8-methylquinoline-2,4-dicarbonitrile]			36		310 nM		97
COc1nc2ccc(C(O)(c3ccc(C)nc3C)c3cnnn3C)cc2c(Cl)c1Cc1ccc(-n2cccn2)cc1 (single isomer, unassigned) [Example 17b, (3-(4-(1H-Pyrazol-1-yl)benzyl)-4-chloro-2-methoxyquinolin-6-yl)(2,6-dimethylpyridin-3-yl)(1-methyl-1H-1,2,3-triazol-5-yl)methanol]			200		660 nM		97
